Results taken from paper PMC9304322, “Targeting retinoic acid receptor alpha-corepressor interaction activates chaperone-mediated autophagy and protects against retinal degeneration” (Nature Communications, 2022).
Where “and” joins values, the source holds several entries; their conditions need not be identical. Equal values may be shown once. Read-outs that look alike come from different tables or passages of the source.

Test: Pharmacokinetic analysis, plasma and brain;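 for Fig. 3a level, MEAN: plasma concentration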;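 for Fig. 3a level, single animals 1-3: plasma concentration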;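 for Fig. 3b level, MEAN: brain concentration in ng/g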;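 for Fig. 3b level, single animals 1-3: brain concentration in ng/g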
Type: in vivo, ICR (CD-1) male mice
Design: Fig. 3a level, single animals 1-3 / Fig. 3a level, MEAN / Fig. 3b level, single animals 1-3 / Fig. 3b level, MEAN: unit not given here
Settings: for Kp at 0.083 h / Kp at 0.25 h / Kp at 0.5 h / Kp at 1 h / Kp at 2 h / Kp at 4 h / Kp at 8 h / Kp at 24 h / half-life: male, ICR (CD-1), mouse; for half-life: mice
Protocol: ICR (CD-1) male mice were fasted at least three hours and water was available ad libitum before the study. Animals were housed in a controlled environment, target conditions: temperature 18 to 29 °C, relative humidity 30 to 70%. Temperature and relative humidity was monitored daily. An electronic time-controlled lighting system was used to provide a 12 h light/12 h dark cycle. 3 mice for each indicated time point were administered 30 mg/Kg CA39 or CA77 by oral gavage or 1 mg/Kg CA39 or CA77 by intravenous injection using 30% PEG-400, 65% D5W (5% dextrose in water), 5% Tween-80 vehicle. Mice were sacrificed, and brain samples were harvested at […], 0.25 h, 0.5 h, 1 h, 2 h, 4 h, 8 h, 24 h, and analyzed for CA39 or CA77 levels using LC-MS/MS. Pharmacokinetics parameters were calculated using Phoenix WinNonlin 6.3. Experiments performed at SIMM-SERVIER joint Biopharmacy Laboratory.

For `Clc1ccc2c(c1)OCC(c1ccc(-c3ccccc3)cc1)=N2` [CA39], the “Fig. 3a level, MEAN” value (IV, Time 0.083 h) was 61.1254, the “Fig. 3b level, MEAN” value (IV, Time 0.083 h) was 61.1254 and the “Fig. 3a level, MEAN” value (IV, Time 0.25 h) was 57.4762. The “Fig. 3a level, single animals 1-3” value (IV, Time 0.25 h) was 71.3655 and 52.5276 and 48.5355, the “Fig. 3b level, MEAN” value (IV, Time 0.25 h) was 421.667 and the “Fig. 3b level, single animals 1-3” value (IV, Time 0.25 h) was 231 and 301 and 733. For the same compound, the “Fig. 3a level, MEAN” value (IV, Time 0.5 h) was 96.4163, the “Fig. 3a level, single animals 1-3” value (IV, Time 0.5 h) was 97.156 and 95.5316 and 96.5614 and the “Fig. 3b level, single animals 1-3” value (IV, Time 0.5 h) was 253.229 and 219.924 and 96.4385. For the same compound, the “Fig. 3a level, single animals 1-3” value (IV, Time 1 h) was 65.9772 and 7.434 and 72.9585, the “Fig. 3b level, single animals 1-3” value (IV, Time 1 h) was 838.595 and 293.717 and 133.533 and the “Fig. 3a level, MEAN” value (IV, Time 2 h) was 127.026. The “Fig. 3a level, single animals 1-3” value (IV, Time 2 h) was 125.63 and 157.282 and 98.1671, the “Fig. 3b level, MEAN” value (IV, Time 2 h) was 775.11 and the “Fig. 3b level, single animals 1-3” value (IV, Time 2 h) was 875.96 and 812.85 and 636.52. For the same compound, the “Fig. 3a level, MEAN” value (IV, Time 4 h) was 46.5654, the “Fig. 3a level, single animals 1-3” value (IV, Time 4 h) was 39.4404 and 55.2956 and 44.9603 and the “Fig. 3b level, MEAN” value (IV, Time 4 h) was 580.088. The “Fig. 3b level, single animals 1-3” value (IV, Time 4 h) was 625.12 and 582.925 and 532.22, the “Fig. 3a level, single animals 1-3” value (IV, Time 8 h) was 53.1345 and 36.7923 and 35.4264 and the “Fig. 3b level, single animals 1-3” value (IV, Time 8 h) was 688.34 and 475.587 and 740.905. The “Fig. 3a level, MEAN” value (IV, Time 24 h) was 8.834, the “Fig. 3a level, single animals 1-3” value (IV, Time 24 h) was 7.122 and 12.7302 and 6.65 and the “Fig. 3b level, single animals 1-3” value (IV, Time 24 h) was 137.514 and 156.133 and 197.201. The “B/P, Brian/Plasma” value (P.O., Time 0.25 h, individual animals) was 3.427 and 5.487, the “B/P, Brian/Plasma” value (P.O., Time 0.5 h, individual animals) was 1.74 and 1.607 and the “B/P, Brian/Plasma” value (P.O., Time 1 h, individual animals) was 6.477 and 4.807. The “B/P, Brian/Plasma” value (P.O., Time 2 h, individual animals) was 7.798 and 6.806, the “B/P, Brian/Plasma” value (P.O., Time 4 h, individual animals) was 5.185 and 9.171 and 14.1075 and the “B/P, Brian/Plasma” value (P.O., Time 8 h, individual animals) was 9.709 and 14.5255. For the same compound, the “B/P, Brian/Plasma” value (P.O., Time 24 h, individual animals) was 21.0683, the “Fig. 3b level, MEAN” value (PO, Time 0.25 h) was 110.007 and the “Fig. 3b level, single animals 1-3” value (PO, Time 0.25 h) was 143.332 and 91.145 and 95.5425. For the same compound, the “Fig. 3b level, MEAN” value (PO, Time 0.5 h) was 246.705, the “Fig. 3b level, single animals 1-3” value (PO, Time 0.5 h) was 250.188 and 244.993 and 244.933 and the “Fig. 3b level, single animals 1-3” value (PO, Time 1 h) was 302.13 and 49.5585 and 266.305. For the same compound, the “Fig. 3a level, MEAN” value (PO, Time 2 h) was 103.157, the “Fig. 3a level, single animals 1-3” value (PO, Time 2 h) was 111.712 and 104.237 and 93.5216 and the “Fig. 3b level, MEAN” value (PO, Time 2 h) was 582.568. For the same compound, the “Fig. 3b level, single animals 1-3” value (PO, Time 2 h) was 673.81 and 487.02 and 586.875, the “Fig. 3a level, MEAN” value (PO, Time 4 h) was 73.9526 and the “Fig. 3a level, single animals 1-3” value (PO, Time 4 h) was 120.568 and 63.5639 and 37.7259. The “Fig. 3b level, MEAN” value (PO, Time 4 h) was 609.462, the “Fig. 3b level, single animals 1-3” value (PO, Time 4 h) was 583.44 and 598.755 and 646.19 and the “Fig. 3a level, single animals 1-3” value (PO, Time 8 h) was 41.4288 and 48.9846 and 51.0072. The “Fig. 3b level, single animals 1-3” value (PO, Time 8 h) was 620.035 and 487.115 and 529.995, the “Fig. 3a level, MEAN” value (PO, Time 24 h) was 11.2914 and the “Fig. 3a level, single animals 1-3” value (PO, Time 24 h) was 11.8674 and 7.411 and 14.5959. For the same compound, the “Fig. 3b level, MEAN” value (PO, Time 24 h) was 118.958, the “Fig. 3b level, single animals 1-3” value (PO, Time 24 h) was 104.574 and 178.19 and 74.11 and the “B/P, Brian/Plasma” value (i.v., Time 0.083 h, individual animals) was 1.236 and 1.666. For the same compound, the “B/P, Brian/Plasma” value (i.v., Time 0.25 h, individual animals) was 1.735 and 1.969, the “B/P, Brian/Plasma” value (i.v., Time 0.5 h, individual animals) was 2.565 and 2.537 and the “B/P, Brian/Plasma” value (i.v., Time 1 h, individual animals) was 6.667 and 3.6501. The “B/P, Brian/Plasma” value (i.v., Time 2 h, individual animals) was 3.096 and 5.978, the “B/P, Brian/Plasma” value (i.v., Time 4 h, individual animals) was 10.8283 and 14.3725 and the “B/P, Brian/Plasma” value (i.v., Time 8 h, individual animals) was 13.2396 and 14.9605. For the same compound, the “B/P, Brian/Plasma” value (i.v., Time 24 h, individual animals) was 13.9974, the Kp at 0.083 h (brain, iv, 1 mg/Kg, i.v., Time 0.083 h, individual animals, read-out: B/P, Brian/Plasma) was 1.37 and the Kp at 0.083 h (brain, iv, 1 mg/Kg, i.v., Time 0.083 h, mean, read-out: B/P, Brian/Plasma, Mean) was 1.42. For the same compound, the Kp at 0.25 h (brain, iv, 1 mg/Kg, i.v., Time 0.25 h, individual animals, read-out: B/P, Brian/Plasma) was 2.01, the Kp at 0.25 h (brain, iv, 1 mg/Kg, i.v., Time 0.25 h, mean, read-out: B/P, Brian/Plasma, Mean) was 1.9 and the Kp at 0.5 h (brain, iv, 1 mg/Kg, i.v., Time 0.5 h, individual animals, read-out: B/P, Brian/Plasma) was 2.58. For the same compound, the Kp at 0.5 h (brain, iv, 1 mg/Kg, i.v., Time 0.5 h, mean, read-out: B/P, Brian/Plasma, Mean) was 2.56, the Kp at 1 h (brain, iv, 1 mg/Kg, i.v., Time 1 h, individual animals, read-out: B/P, Brian/Plasma) was 4.58 and the Kp at 1 h (brain, iv, 1 mg/Kg, i.v., Time 1 h, mean, read-out: B/P, Brian/Plasma, Mean) was 4.11. The Kp at 2 h (brain, iv, 1 mg/Kg, i.v., Time 2 h, individual animals, read-out: B/P, Brian/Plasma) was 5.36, the Kp at 2 h (brain, iv, 1 mg/Kg, i.v., Time 2 h, mean, read-out: B/P, Brian/Plasma, Mean) was 4.81 and the Kp at 4 h (brain, iv, 1 mg/Kg, i.v., Time 4 h, individual animals, read-out: B/P, Brian/Plasma) was 14.8. The Kp at 4 h (brain, iv, 1 mg/Kg, i.v., Time 4 h, mean, read-out: B/P, Brian/Plasma, Mean) was 13.3, the Kp at 8 h (brain, iv, 1 mg/Kg, i.v., Time 8 h, individual animals, read-out: B/P, Brian/Plasma) was 11.7 and the Kp at 8 h (brain, iv, 1 mg/Kg, i.v., Time 8 h, mean, read-out: B/P, Brian/Plasma, Mean) was 13.3. The Kp at 24 h (brain, iv, 1 mg/Kg, i.v., Time 24 h, individual animals, read-out: B/P, Brian/Plasma) was 14.7, the Kp at 24 h (brain, iv, 1 mg/Kg, i.v., Time 24 h, mean, read-out: B/P, Brian/Plasma, Mean) was 14.2 and the Kp at 0.25 h (brain, po, 30 mg/Kg, P.O., Time 0.25 h, individual animals, read-out: B/P, Brian/Plasma) was 4.01. It also gave a Kp at 0.25 h (brain, po, 30 mg/Kg, P.O., Time 0.25 h, mean, read-out: B/P, Brian/Plasma, Mean) of 4.31, a Kp at 0.5 h (brain, po, 30 mg/Kg, P.O., Time 0.5 h, individual animals, read-out: B/P, Brian/Plasma) of 1.82 and a Kp at 0.5 h (brain, po, 30 mg/Kg, P.O., Time 0.5 h, mean, read-out: B/P, Brian/Plasma, Mean) of 1.72. It also gave a Kp at 1 h (brain, po, 30 mg/Kg, P.O., Time 1 h, individual animals, read-out: B/P, Brian/Plasma) of 5.37, a Kp at 1 h (brain, po, 30 mg/Kg, P.O., Time 1 h, mean, read-out: B/P, Brian/Plasma, Mean) of 5.55 and a Kp at 2 h (brain, po, 30 mg/Kg, P.O., Time 2 h, individual animals, read-out: B/P, Brian/Plasma) of 7.84. The Kp at 2 h (brain, po, 30 mg/Kg, P.O., Time 2 h, mean, read-out: B/P, Brian/Plasma, Mean) was 7.48, the Kp at 4 h (brain, po, 30 mg/Kg, P.O., Time 4 h, mean, read-out: B/P, Brian/Plasma, Mean) was 9.49 and the Kp at 8 h (brain, po, 30 mg/Kg, P.O., Time 8 h, individual animals, read-out: B/P, Brian/Plasma) was 16.6. The Kp at 8 h (brain, po, 30 mg/Kg, P.O., Time 8 h, mean, read-out: B/P, Brian/Plasma, Mean) was 13.6, the Kp at 24 h (brain, po, 30 mg/Kg, P.O., Time 24 h, individual animals, read-out: B/P, Brian/Plasma) was 11.6 and the Kp at 24 h (brain, po, 30 mg/Kg, P.O., Time 24 h, mean, read-out: B/P, Brian/Plasma, Mean) was 17.9. For the same compound, the half-life (brain, IV 1 mg/kg, read-out: Half-life in brain (converted)) was 8 h, the half-life (brain, PO 30 mg/kg, read-out: Half-life in brain (converted)) was 10 h and the half-life (plasma, IV 1 mg/kg, read-out: Half-life in plasma (converted)) was 8.2 h. The half-life (plasma, PO 30 mg/kg, read-out: Half-life in plasma (converted)) was 7.5 h.
